From patent US6844190B2, “St-B17 serotonin receptor” (The United States of America as represented by the …, priority 1992, dated 2005)
Read-outs that look alike come from different tables or passages of the source.

Experiments:
[1] = target: T1, St-B17 serotonin receptor (Rattus norvegicus, UniProt P31388, L57V); experiment: [125I]-LSD competition binding, Cos-7 cell membranes expressing St-B17; parameters: expressed in transfected cells; host or cells: Cos-7 cells, transient transfection, crude membranes; settings: for affinity for St-B17 (in words): qualitative statement
Experimental: (§1) This experiment was performed on Cos-7 cell membranes expressing the St-B17 serotonin receptor.

[2] = target: T2, St-B17 serotonin receptor (Rattus norvegicus, UniProt P31388); experiment: as above; settings: read-out: Ki vs. [125I]-LSD, Mean ± SEM
T2 construct: expressed in transfected cells; host or cells: Cos-7 cells, transient transfection, crude membranes
Experimental: as §1

[3] = target: T1, St-B17 serotonin receptor; experiment: [3H]-5-HT competition binding, Cos-7 cell membranes expressing St-B17; parameters: expressed in transfected cells; host or cells: Cos-7 cells, transient transfection, crude membranes
[4] = target: T3, St-B17 stably expressed in HEK-293 cells (Rattus norvegicus, UniProt P31388, L57V); experiment: cAMP accumulation in intact HEK-293 cells stably expressing St-B17; type: cell-based
T3 construct: expressed in transfected cells
Experimental: Human Embryonic Kidney cells (HEK 293 available from the ATCC) were stably co-transfected in 150mm dishes by the CaPO4 technique with 30 μg of pSRα-B17 and 3 μg of pMam-neo (INVITROGEN). These HEK 293 cells were then subjected to selection with 600 μg/ml genetecin (G418) (GIBCO). The resistant colonies were collected and screened for receptor expression by [^125I]-LSD binding as described in Example 6.
Intracellular cAMP levels were determined after a 5 minute incubation of intact cells with various test compounds at 37° C. in the presence of the cAMP phosphodiesterase inhibitor RO-20-1724, using a modification of a previously described cAMP assay (Monsma, F. J., Jr., Barton, A. C., and Sibley, D. R. (1990) J. Neurochemistry 54, 1200-1207) wherein the adrenal cAMP binding protein was replaced with 0.8 mg/ml protein kinase A in water.

[5] = tested on: adenylyl cyclase activity in the NCB-20 neuroblastoma cell line; settings: NCB-20 cells, literature; read-out: EC50, activation of adenylyl cyclase; cited from earlier work
[6] = target: T1, St-B17 serotonin receptor
[7] = target: T1, St-B17 serotonin receptor; experiment: Saturation analysis of [3H]-5-HT binding in transfected Cos-7 cells; parameters: expressed in transfected cells; host or cells: Cos-7 cells, transient transfection, crude membranes
Excerpt: The binding of [^3H]-5-HT was similarly not affected by the addition of guanine nucleotides.

[8] = screened compounds, radioligand not restated, read-out: inhibition constant (Ki)
[9] = 0.5 nM [125I]-LSD, Cos-7 membranes, n=3, Cheng-Prussoff from IC50
[10] = read-out: Ki vs. [3H]-5-HT, Mean ± SEM
[11] = Ki vs. [125I]-LSD, Mean ± SEM, 0.5 nM [125I]-LSD, Cos-7 membranes, n=3, Cheng-Prussoff from IC50
[12] = 10 μM final concentration, FIG. 5
[13] = inhibition constant (Ki), screened compounds, radioligand not restated
[14] = 5 nM [3H]-5-HT, Cos-7 membranes, n=3, Cheng-Prussoff from IC50, read-out: Ki vs. [3H]-5-HT, Mean ± SEM

T2 sequence (P31388 with tags, fused parts or gaps L57V): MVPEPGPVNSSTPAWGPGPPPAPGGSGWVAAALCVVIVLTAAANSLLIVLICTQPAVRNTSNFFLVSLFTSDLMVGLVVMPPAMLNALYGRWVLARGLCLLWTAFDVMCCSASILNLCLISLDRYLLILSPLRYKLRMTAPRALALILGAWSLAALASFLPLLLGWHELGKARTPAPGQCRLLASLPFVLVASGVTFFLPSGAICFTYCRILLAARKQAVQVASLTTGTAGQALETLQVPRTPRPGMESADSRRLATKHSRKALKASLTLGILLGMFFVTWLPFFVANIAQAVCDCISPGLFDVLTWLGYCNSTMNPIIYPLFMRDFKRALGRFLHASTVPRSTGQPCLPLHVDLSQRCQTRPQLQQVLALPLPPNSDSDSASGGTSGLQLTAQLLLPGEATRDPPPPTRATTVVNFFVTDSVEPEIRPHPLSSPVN
T1 sequence (P31388 with tags, fused parts or gaps L57V): as above
T3 sequence (P31388 with tags, fused parts or gaps L57V): as above

CNC[C@H](O)c1ccc(O)c(O)c1 [epinephrine]
Ki [1, 8]: > 10 µM

CN1C[C@H](CNC(=O)OCc2ccccc2)C[C@@H]2c3cccc4c3c(cn4C)C[C@H]21 [Metergoline]
Ki [2, 9]: 30 ± 0.38 nM | Ki [3, 10]: 61 ± 23 nM

CN(C)CCC=C1c2ccccc2CCc2ccccc21 [Amitriptyline]
Ki [2, 9]: 69.6 ± 7.21 nM | Ki [3, 10]: 82 ± 6 nM

N,ω-Methyltryptamine
Ki [2, 9]: 342 ± 32.2 nM

NCCc1c[nH]c2ccc(OCc3ccccc3)cc12 [5-Benzyloxytryptamine]
Ki [1, 11]: 0.11 ± 0.0179 µM

CNCCc1c[nH]c2ccc(O)cc12 [5-Hydroxy-N,ω-methyltryptamine]
Ki [2, 9]: 58 ± 8.32 nM

CN1C[C@H](CC#N)C[C@@H]2c3cccc4[nH]c(Cl)c(c34)C[C@H]21 [Lergotrile]
Ki [2]: 36.5 ± 1.04 nM

COc1cc(N)c(Cl)cc1C(=O)NC1CN2CCC1CC2 (centres unmarked) [zacopride]
Ki [1, 8]: > 10 µM

COc1ccc2[nH]cc(CCN)c2c1 [5-methoxytryptamine]
effect on cAMP levels on their own (in words) [4, 12]: elicit an increase in cAMP levels | Ki [1, 11]: 0.0389 ± 0.00395 µM

O=C(c1ccc(F)cc1)C1CCN(CCn2c(=O)[nH]c3ccccc3c2=O)CC1 [ketanserin]
affinity for St-B17 (in words) [1]: relatively low affinity | Ki [1, 8]: > 10 µM

CN1CCN(c2nc3cc(C(F)(F)F)ccc3n3cccc23)CC1.O=C(O)/C=C\C(=O)O.O=C(O)/C=C\C(=O)O [CGS 12066B]
Ki [2, 9]: 738 ± 66.6 nM | affinity for St-B17 (in words) [1]: relatively low affinity

NC[C@H](O)c1ccc(O)c(O)c1 [norepinephrine]
Ki [1, 8]: > 10 µM

CCCN(CCC)C1CCc2cccc(O)c2C1 (centres unmarked) [8-OH-DPAT]
affinity for St-B17 (in words) [1]: relatively low affinity

O=C(CCCN1CCC2(CC1)C(=O)NCN2c1ccccc1)c1ccc(F)cc1 [spiroperidol]
Ki [1, 8]: > 10 µM

Fc1ccc([C@@H]2CCNC[C@H]2COc2ccc3c(c2)OCO3)cc1 [paroxetine]
Ki [1, 13]: > 10 µM

CN1C[C@H](C(=O)N[C@]2(C)O[C@@]3(O)[C@@H]4CCCN4C(=O)[C@H](Cc4ccccc4)N3C2=O)C[C@@H]2c3cccc4[nH]cc(c34)C[C@H]21 [Dihydroergotamine]
effect on cAMP levels on their own (in words) [4, 12]: stimulate cAMP accumulation | functional classification at St-B17 receptor [4, 12]: partial agonists | Ki [1, 11]: 0.0131 ± 0.0009 µM | Ki [3]: 5.4 ± 5.4 nM

COc1ccc2[nH]cc(CCNC(C)=O)c2c1 [melatonin]
Ki [1, 8]: > 10 µM

CC(C)NCC(O)COc1cccc2[nH]ccc12 (centres unmarked) [pindolol]
Ki [1, 8]: > 10 µM

c1ccc2c(N3CCNCC3)cccc2c1 [1(1-naphthyl)piperazine]
Ki [1, 11]: 0.104 ± 0.0138 µM

COc1ccc2[nH]cc(CCN(C)C)c2c1 [N,N-Dimethyl-5-methoxytryptamine]
Ki [1, 11]: 0.0798 ± 0.00386 µM

CCCN1C[C@H](CSC)C[C@@H]2c3cccc4[nH]cc(c34)C[C@H]21 [Pergolide]
Ki [2, 9]: 29.9 ± 7.31 nM | affinity for St-B17 (in words) [1]: relatively high affinity

NCCc1c[nH]c2ccc(O)cc12 [5-HT, 5-hydroxytryptamine]
Ki [2, 9]: 151 ± 12.8 nM | EC50 [4]: 145 nM | EC50 [5]: 300 nM | influence of guanine nucleotide analogue GppNHp on affinity ([1]; addition of GppNHp): not influenced | Hill coefficient for the competition curve ([1]; vs. [125I]-LSD): not significantly different from unity

CNCCC=C1c2ccccc2CCc2ccccc21 [Nortriptyline]
Ki [2, 9]: 147 ± 2.61 nM

Nc1ccc(CCN2CCN(c3cccc(C(F)(F)F)c3)CC2)cc1 [PAPP]
Ki [2, 9]: 806 ± 75.2 nM

CCN(CC)C(=O)[C@@H]1C=C2c3cccc4[nH]c(I)c(c34)C[C@H]2N(C)C1 [[^125I]-LSD, lysergic acid diethylamide]
Kd ([6]; KD, representative experiment (FIG. 1, scatchard analysis), single representative experiment): 1.5 nM | Kd ([6]; dissociation constant (KD), [125I]-LSD saturation binding, Cos-7 membranes, mean n=3): 1.26 nM | maximum binding (Bmax) ([6]; range over experiments): 2-5 pMoles/mg protein | Bmax, representative experiment (FIG. 1) ([6]; single representative experiment): 3.4 pMoles mg protein^−1 | affinity for St-B17 (in words) [1]: relatively high affinity

NCCc1ccc(O)c(O)c1 [dopamine]
Ki [1, 8]: > 10 µM

CN1CCN(C2=Nc3ccccc3Oc3ccc(Cl)cc32)CC1 [Loxapine]
Ki [2, 9]: 64.75 ± 0.6 nM | Ki [3, 10]: 56 ± 1.5 nM

Clc1ccc2c(c1)C(N1CCNCC1)=Nc1ccccc1O2 [Amoxipine]
Ki [2, 9]: 30.4 ± 1.64 nM | effect on cAMP levels on their own (in words) [4, 12]: no significant effect on cAMP levels | effect on the cAMP response elicited by 5-HT (in words) [4, 12]: substantially inhibit the response elicited by 5-HT | functional classification at St-B17 receptor [4, 12]: antagonists

NCCc1c[nH]cn1 [histamine]
Ki [1, 8]: > 10 µM

COc1ccccc1N1CCN(CCCCN2C(=O)c3ccccc3C2=O)CC1 [NAN-190]
Ki [1, 13]: > 10 µM

CCN(CC)C(=O)[C@@H]1C=C2c3cccc4[nH]c(Br)c(c34)C[C@H]2N(C)C1 [2-Br-LSD]
Ki [2, 9]: 17.1 ± 1.11 nM

CC[C@@H](CO)NC(=O)[C@@H]1C=C2c3cccc4c3c(cn4C)C[C@H]2N(C)C1 [MethyscrGide]
Ki [2, 9]: 372 ± 72.7 nM

Clc1cccc(N2CCNCC2)c1 [mCPP]
Ki [2, 9]: 2310 ± 343 nM

FC(F)(F)c1cccc(N2CCNCC2)c1 [TFMPP]
Ki [1, 11]: 0.482 ± 0.0372 µM

CN(C)CCCC1(c2ccc(F)cc2)OCc2cc(C#N)ccc21 (centres unmarked) [citalopram]
Ki [1, 13]: > 10 µM

CC(C)C[C@H]1C(=O)N2CCC[C@H]2[C@]2(O)O[C@](NC(=O)[C@@H]3C[C@@H]4c5cccc6[nH]cc(c56)C[C@H]4N(C)C3)(C(C)C)C(=O)N12 [Dihydroergocryptine]
Ki [1, 11]: 0.161 ± 0.0132 µM

CN(C)C/C=C(/c1ccc(Br)cc1)c1cccnc1 [zimelidine]
Ki [1, 8]: > 10 µM

NCCc1c[nH]c2ccc(C(N)=O)cc12 [5-Carboxamidotryptamine]
Ki [2, 9]: 774 ± 84.4 nM | effect on cAMP levels on their own (in words) [4, 12]: elicit an increase in cAMP levels | Ki [3, 14]: 253 ± 20 nM

Cc1nc2sccn2c(=O)c1CCN1CCC(=C(c2ccc(F)cc2)c2ccc(F)cc2)CC1 [Ritanerin]
Ki [2, 9]: 44.1 ± 4.35 nM | Ki [3, 14]: 16 ± 2 nM

CCNC(C)Cc1cccc(C(F)(F)F)c1 (centres unmarked) [fenfluramine]
Ki [1, 13]: > 10 µM

COc1cc(N)c(Cl)cc1C(=O)NC1CCN2CCCC1C2 (centres unmarked) [BRL 24924]
Ki [1, 8]: > 10 µM

CN1C[C@@H](NS(=O)(=O)N(C)C)C[C@@H]2c3cccc4c3c(cn4C)C[C@H]21 [Mesulergine]
Ki [2, 9]: 1720 ± 248 nM

NCCc1ccc(O)cc1 [tyramine]
Ki [1, 8]: > 10 µM

NCC(O)c1ccc(O)cc1 (centres unmarked) [octopamine]
Ki [1, 8]: > 10 µM

COc1ccccc1N1CCNCC1 [2-MPP]
Ki [2, 9]: 3050 ± 321 nM

c1ccc2c(c1)OCC(C1=NCCN1)O2 (centres unmarked) [idazoxan]
Ki [1, 8]: > 10 µM

CN1[C@@H]2CC[C@H]1C[C@@H](OC(=O)c1cc(Cl)cc(Cl)c1)C2 [MDL 72222]
affinity for St-B17 (in words) [1]: virtually no affinity | Ki [1, 8]: > 10 µM

CN1C2CCCC1CC(NC(=O)c1nn(C)c3ccccc13)C2 (centres unmarked) [BRL 43694A]
Ki [1, 8]: > 10 µM

NCCc1c[nH]c2ccc(O)cc12 [[^3H]-5-HT]
Bmax ([7]; [3H]-5-HT saturation binding): 1-3 pMoles/mg protein | Kd ([7]; [3H]-5-HT saturation binding, n=3): 37 nM | effect of guanine nucleotides on binding ([7]; addition of guanine nucleotides): not affected

CN1[C@@H]2CC[C@H]1C[C@@H](OC(=O)c1c[nH]c3ccccc13)C2 [ICS 205,930]
affinity for St-B17 (in words) [1]: virtually no affinity
